Patent publication US9017672B2, “Hexon Tat-PTD modified adenovirus and uses thereof” (Immunicum Aktiebolag, priority 2012, dated 2015)

B1: HP-NAP: Helicobacter pylori Neutrophil Activating Protein, here secreted from virus-transduced cells (protein)
chain: MKTFEILKHLQADAIVLFMKVHNFHWNVKGTDFFNVHKATEEIYEEFADMFDDLAERIVQLGHHPLVTLSEAIKLTRVKEETKTSFHSKDIFKEILEDYKYLEKEFKELSNTAEKEGDKVTVTYADDQLAKLQKSIWMLQAHLA

Tests used:
[1] = test system: cisplatin-insensitive SK-N-FI cells; experiment: Relative cell viability by MTS assay, virus or drug; assay type: cell-based
Description: (§1) FIG. 25. Oncolytic adenovirus in combination with chemotherapy drugs. A cisplatin-insensitive clone of SK-N-FI and doxoru bicin-insensitive, etoposide-insensitive and vincristine-insensitive clones of SH-SY-5Y were established through repeated cycles of culture with increasing drug concentration. (A-D) Drug-sensitive (black lines) and drug-insensitive (grey dotted lines) neuroblastoma cells were then treated with viruses or drugs. The relative cell viability was analyzed after 4 days by MTS assay. (A) Oncolytic virus and cisplatin killing of SK-N-FI cells. (B) Oncolytic virus and etoposide killing of SH-SY-5Y cells. (C) Oncolytic virus and doxorubicin killing of SH-SY-5Y cells. (D) Oncolytic virus and vincristine killing of SH-SY-5Y cells. All data are shown as mean±SD from four independent experiments each with triplicate samples. (E) BON, NCI-H727 and QGP-1 cell lines were treated with PTD-based oncolytic adenovirus Ad5PTD(i/CgA-E1a-miR122T6) with different evg/cell in absence or presence of 10 μg/mL or 200 μg/mL cyclophosphamide. The relative cell viability was analyzed after 6 days by MTS assay.
(§2) A cisplatin-insensitive clone of the SK-N-FI neuroblastoma cell line and doxorubicin-, etoposide- and vincristine-insensitive clones of SH-SY-SY were established and treated with viruses at different evg/cell or drugs at various concentrations. The relative cell viability was analyzed by MTS assay. […] Ad5PTD(WT) also killed cisplatin-sensitive and insensitive SK-N-FI with the same efficacy (FIG. 25A).

[2] = test system: cisplatin-sensitive SK-N-FI cells; experiment: as above; assay type: cell-based; conditions: drug
Description: as §1, §2

human neutrophils = experiment: Transwell migration assay of neutrophils against supernatants of virus-transduced BON cells; assay type: cell-based; conditions: supernatants 48 hours post-transduction, MOI 10 FFU/cell
Description: (§3) BON cells were transduced with viruses Ad5PTDf35(D24-sNAP) or Ad5PTDf35(D24) at MOI 10 FFU/cell. Supernatants were harvested 48 hours post-transduction. (a) Transwell migration assay of human neutrophils isolated from 4 different individuals (2×10^5 cells/well) against harvested supernatants for 2 hours at 37° C. All samples were analyzed in triplicates and the data is represented as mean±SD of number of cells migrated. Supernatant from untransduced BON cells were used as control, (***p<0.001; n=12). (b) Granulocyte activation assay with supernatants from virus-transduced BON cells for 30 minutes at 37° C. Activation was measured in terms of ROI production, which was monitored using fluorescent dye DHR123. Supernatant from untransduced BON cells were used as control. At least 10000 events were recorded in the flow cytometer and MFI of DHR123 was recorded, (**p<0.01; *p<0.05; n=5). (c) Mice bearing BON tumors were treated with two intratumoral injections of Ad5PTDf35(D24-sNAP) or Ad5PTDf35(Δ24) (Indicated dotted arrows) and 2 mice per group were sacrificed, blood and tumor samples were drawn at different time points (indicated by solid arrows). Serum was separated from blood by centrifugation at 300 g for 10 min. Concentration of various cytokines determined by ELISA are represented in (d) TNF-α, (e) MIP2-α and (f) IL12/23 p40. […] All samples were analyzed in duplicates. […]

neutrophils = experiment: Granulocyte activation assay, ROI production (DHR123); assay type: cell-based; conditions: supernatants of transduced BON cells, 30 minutes
Description: as §3

[3] = test system: TNF-α, MIP2-α, IL12/23 p40; experiment: Serum cytokines by ELISA after intratumoral virus injections; assay type: in vivo; conditions: BON tumor-bearing mice, two intratumoral injections
Description: as §3

Molecule | IC50 ([1]; cisplatin-insensitive SK-N-FI, drug) [µM] | more drug needed to kill insensitive compared to sensitive cells ([1]; cisplatin-insensitive vs cisplatin-sensitive SK-N-FI) [fold] | IC50 [2] [µM] | neutrophil migration (human neutrophils) | neutrophil activation, release of reactive oxygen species (neutrophils) | induction of serum cytokines [3]
N.N.[Cl][Pt][Cl] [cisplatin] | 100 | 12 | 8 | – | – | –
B1 | – | – | – | efficiently induce neutrophil migration | activated them to release reactive oxygen species | induced proinflammatory cytokines (TNF-α and MIP2-α) and Th1 type cytokines (IL12/23 p40)
